Consider three molecules from PMC12348107, “Saponins from Oxybasis rubra (L.) S.Fuentes, Uotila & Borsh: Comparative Assessment of Cytotoxic Potential Against a Wide Panel of Cancer Cell Lines” (Molecules, 2025).

What is called IC50 is the concentration at which inhibition is half-maximal.

Several values for one entry are separate records, joined by “and”; a condition that tells them apart may be missing. Equal values may be shown once. Read-outs that look alike come from different tables or passages of the source.

Data set [1] deals with HTB-140 malignant melanoma cells. The data set can be described thus: LDH cytotoxicity assay, HTB-140. In kind it is cell-based. Conditions: Homo sapiens, LDH test, read-out: Cytotoxic activity expressed as IC50. Here is the method:
(§1) The cytotoxic activity was tested on human cancer and normal cell lines, grouped in several panels: skin (malignant melanoma HTB-140, malignant melanoma A375, melanoma WM793, and normal keratinocytes HaCaT), prostate (prostate carcinoma DU-145, prostate carcinoma PC3, and prostate epithelial cells PNT2), thyroid (thyroid carcinoma FTC133, thyroid carcinoma, undifferentiated 8505C), gastrointestinal panel (hepatocellular carcinoma HepG2, colon adenocarcinoma Caco-2, and colon adenocarcinoma HT29), and single line of lung carcinoma A549. Cells were grown at standard conditions (37 °C, 5% CO2, relative humidity) and culture media (DMEM/F12 for PNT2, WM793, HT29, A549; DMEM Low Glucose for DU-145; DMEM High Glucose for A375, HaCaT, A549; MEM with NEAA for Caco-2), supplemented with 10% fetal bovine serum (FBS) and 1% antibiotic solution (10,000 U penicillin and 10 mg streptomycin/mL). All cell lines, cell culture media, and supplements were from Merck (Seelze, Germany).
(§2) Before the experiment, cells were seeded onto 96-well plates for 24 h, at a density of 1.5 × 10^4 cells/ well. Then the tested compounds (5–100 μg/mL) were added and incubated for 24 and 48 h. Cell viability was measured with the lactate dehydrogenase (LDH) assay by Clontech (Clontech, Mountain View, CA, USA), as described previously. The absorbance was measured at 490 nm using a Biotek Synergy microplate reader (BioTek Instruments Inc., Winooski, VT, USA). Cell viability was expressed as a percentage of dead cells. Each experiment was conducted in triplicate. Doxorubicin was used as a reference cytostatic.
(§3) The results were expressed as mean (±SD). Data were analyzed using Statistica v.13.3 (StatSoft, Tulsa, OK, USA). The IC50 values were calculated using OriginPro 2020b (64-bit) 9.7.5.184 (Academic) (OriginLab Corporation, Northampton, MA, USA). One-way analysis of variance (ANOVA) and the post-hoc Tukey multiple comparison test were used. The statistical significance was defined at the probability level of p < 0.05. Principal component analysis (PCA) and hierarchical cluster analysis (HCA) were performed using Statistica v.13.3 (StatSoft, Tulsa, OK, USA). Prior to PCA, the Bartlett’s sphericity test was conducted, and the Kaiser-Meyer-Olkin Measure of Sampling Adequacy index (KMO) was examined. In the simple model, for each compound tested (1–4), the cell lines were the cases, and the different concentrations of the compound were the parameters. This was followed by a PCA model in which the cell lines were the parameters, and the compounds (at different concentrations) were the cases. All PCA models were based on a correlation matrix. Hierarchical cluster analysis (CA) based on standardized data was performed using Ward’s method and Euclidean distance. The results were grouped based on Mojena’s rule.

Data set [2] concerns A375 malignant melanoma cells. The data set can be described thus: LDH cytotoxicity assay, A375. In kind it is cell-based. Conditions: Homo sapiens, A-375, LDH test, read-out: Cytotoxic activity expressed as IC50. Here is the method:
as §1, §2, §3

The test system of data set [3] is WM793 primary melanoma cells. The data set can be described thus: LDH cytotoxicity assay, WM793. In kind it is cell-based. Conditions: Homo sapiens, LDH test, read-out: Cytotoxic activity expressed as IC50. The method, then:
as §1, §2, §3

Data set [4] can be described thus: LDH cytotoxicity assay, HaCaT. In kind it is cell-based, human. Conditions: human, HaCaT normal keratinocytes, HaCaT normal cells, LDH test, read-out: Cytotoxic activity expressed as IC50; for IC50 at 24 h: 24 h incubation; for IC50 at 48 h: 48 h incubation. Here is the method:
as §1, §2, §3

For data set [5], the system named is DU-145 metastatic prostate carcinoma cells. In words: LDH cytotoxicity assay, DU-145. In kind it is cell-based, human. Conditions: Homo sapiens, LDH test, read-out: Cytotoxic activity expressed as IC50. Here is the method: as §1, §2, §3
For data set [6], the system named is PC3 metastatic prostate carcinoma cells. The data set can be described thus: LDH cytotoxicity assay, PC3. Conditions: Homo sapiens, LDH test, read-out: Cytotoxic activity expressed as IC50. In kind it is cell-based. The method, then: as §1, §2, §3
Data set [7] in a line: LDH cytotoxicity assay, PNT2. In kind it is cell-based, human. Conditions: human, PNT2 prostate epithelial cells (normal), PNT2 normal cells, LDH test, read-out: Cytotoxic activity expressed as IC50; for IC50 at 24 h: 24 h incubation; for IC50 at 48 h: 48 h incubation. The method, then: as §1, §2, §3
Data set [8] concerns FTC133 follicular thyroid carcinoma cells. The data set can be described thus: LDH cytotoxicity assay, FTC133. In kind it is cell-based. Conditions: Homo sapiens, FTC-133, LDH test, read-out: Cytotoxic activity expressed as IC50. Here is the method: as §1, §2, §3
Data set [9] has as its system 8505C undifferentiated thyroid carcinoma cells. The data set can be described thus: LDH cytotoxicity assay, 8505C. Conditions: Homo sapiens, LDH test, read-out: Cytotoxic activity expressed as IC50. In kind it is cell-based. The method, then: as §1, §2, §3
The test system of data set [10] is Caco-2 colon adenocarcinoma cells. The data set can be described thus: LDH cytotoxicity assay, Caco-2. In kind it is cell-based. Conditions: Homo sapiens, LDH test, read-out: Cytotoxic activity expressed as IC50. The method, then:
as §1, §2, §3

The test system of data set [11] is HT29 colon adenocarcinoma cells. In words: LDH cytotoxicity assay, HT29. In kind it is cell-based. Conditions: Homo sapiens, HT-29, LDH test, read-out: Cytotoxic activity expressed as IC50. The method, then: as §1, §2, §3
In data set [12] the test system is HepG2 hepatocellular carcinoma cells. In words: LDH cytotoxicity assay, HepG2. In kind it is cell-based. Conditions: Homo sapiens, LDH test, read-out: Cytotoxic activity expressed as IC50. Here is the method: as §1, §2, §3
For data set [13], the system named is A549 lung carcinoma cells. The data set can be described thus: LDH cytotoxicity assay, A549. In kind it is cell-based, human. Conditions: Homo sapiens, LDH test, read-out: Cytotoxic activity expressed as IC50. Here is the method: as §1, §2, §3
Setting [14] is: A549, 24 h, A549, 24 h incubation.
[15] abbreviates: A549, 48 h, A549, 48 h incubation.

As for `CC1(C)CC[C@]2(C(=O)O)CC[C@]3(C)C(=CC[C@@H]4[C@@]5(C)CC[C@H](O)[C@@](C)(CO)[C@@H]5CC[C@]43C)[C@@H]2C1` [Compound 4, hederagenin], the IC50 was more than 100 µg/mL in data set [1] (HTB-140, 24 h incubation); more than 100 µg/mL in data set [1] (HTB-140, 48 h incubation); more than 100 µg/mL in [2] (A375, 24 h incubation); more than 100 µg/mL in [2] (A375, 48 h incubation); more than 100 µg/mL in data set [3] (WM793, 24 h incubation); more than 100 µg/mL in data set [3] (WM793, 48 h incubation). Also, the IC50 is 109 µM and 51.5 µg/mL in data set [5] (DU-145, 24 h incubation); 42.9 µM and 20.3 µg/mL in [5] (DU-145, 48 h incubation); more than 100 µg/mL in data set [6] (PC3, 24 h incubation); 164 µM and 77.7 µg/mL in data set [6] (PC3, 48 h incubation); more than 100 µg/mL in data set [8] (FTC133, 24 h incubation); more than 100 µg/mL in data set [8] (FTC133, 48 h incubation). Further, the concentration for half-maximal inhibition (IC50) in data set [9] (24 h incubation) is more than 100 µg/mL; in [9] (48 h incubation), more than 100 µg/mL; in data set [10] (Caco-2, 24 h incubation), 191 µM and 90.1 µg/mL; in data set [10] (Caco-2, 48 h incubation) it was 158 µM and 74.9 µg/mL; in [11] (HT29, 24 h incubation) it was more than 100 µg/mL; in [11] (HT29, 48 h incubation), 191 µM and 90.3 µg/mL. For the same molecule, the IC50 in data set [12] (HepG2, 24 h incubation) is more than 100 µg/mL; in [12] (HepG2, 48 h incubation), more than 100 µg/mL; in data set [13] (setting [14]), more than 100 µg/mL; in [13] (setting [15]) it was 208 µM and 98.2 µg/mL. The half-inhibitory concentration (IC50) at 24 h is more than 100 µg/mL in [4]; 195 µM and 92 µg/mL in [7]. Further, the IC50 at 48 h in [4] was more than 100 µg/mL; in data set [7], 159 µM and 75.1 µg/mL.
As for `COc1cccc2c1C(=O)c1c(O)c3c(c(O)c1C2=O)C[C@@](O)(C(=O)CO)C[C@@H]3O[C@H]1C[C@H](N)[C@H](O)[C@H](C)O1` [DOX, doxorubicin], the IC50 in data set [1] (HTB-140, 24 h incubation) is 9.03 µM and 4.91 µg/mL; in data set [2] (A375, 24 h incubation), 790 nM and 0.43 µg/mL; in [3] (WM793, 24 h incubation) it was more than 40 µg/mL; in [5] (DU-145, 24 h incubation), 4.53 µM and 2.46 µg/mL; in data set [6] (PC3, 24 h incubation) it was more than 40 µg/mL; in data set [8] (FTC133, 24 h incubation) it was 8.56 µM and 4.65 µg/mL. For the same molecule, the IC50 in data set [9] (24 h incubation) is more than 40 µg/mL; in data set [10] (Caco-2, 24 h incubation) it was 5.43 µM and 2.95 µg/mL; in [11] (HT29, 24 h incubation), 2.06 µM and 1.12 µg/mL; in [12] (HepG2, 24 h incubation), 2.05 µM and 1.11 µg/mL; in data set [13] (setting [14]), 2.01 µM and 1.09 µg/mL. Moreover, the IC50 at 24 h in data set [4] was 7.75 µM and 4.21 µg/mL; in data set [7], 2.01 µM and 1.09 µg/mL.
In the case of `CC1(C)CC[C@]2(C(=O)O[C@@H]3O[C@H](CO)[C@@H](O)[C@H](O)[C@H]3O)CC[C@]3(C)C(=CC[C@@H]4[C@@]5(C)CC[C@H](O)[C@@](C)(CO)[C@@H]5CC[C@]43C)[C@@H]2C1` [Compound 3, 28-O-β-D-glucopyranosyl hederagenin ester], the IC50 was more than 100 µg/mL in data set [1] (HTB-140, 24 h incubation); 155 µM and 98.2 µg/mL in data set [1] (HTB-140, 48 h incubation); 73.5 µM and 46.7 µg/mL in [2] (A375, 24 h incubation); 58 µM and 36.8 µg/mL in data set [2] (A375, 48 h incubation); more than 100 µg/mL in data set [3] (WM793, 24 h incubation); more than 100 µg/mL in data set [3] (WM793, 48 h incubation). Also, the IC50 is 56.8 µM and 36.1 µg/mL in data set [5] (DU-145, 24 h incubation); 42.6 µM and 27 µg/mL in data set [5] (DU-145, 48 h incubation); more than 100 µg/mL in [6] (PC3, 24 h incubation); 118 µM and 74.8 µg/mL in data set [6] (PC3, 48 h incubation); more than 100 µg/mL in data set [8] (FTC133, 24 h incubation); more than 100 µg/mL in data set [8] (FTC133, 48 h incubation). Further, the IC50 is more than 100 µg/mL in [9] (24 h incubation); more than 100 µg/mL in data set [9] (48 h incubation); 42.6 µM and 27 µg/mL in data set [10] (Caco-2, 24 h incubation); 38 µM and 24.2 µg/mL in data set [10] (Caco-2, 48 h incubation); 69.2 µM and 44 µg/mL in data set [11] (HT29, 24 h incubation); 60 µM and 38.1 µg/mL in data set [11] (HT29, 48 h incubation). Also, the IC50 is 127 µM and 80.5 µg/mL in [12] (HepG2, 24 h incubation); 107 µM and 68 µg/mL in data set [12] (HepG2, 48 h incubation); 150 µM and 95.3 µg/mL in [13] (setting [14]); 73.2 µM and 46.5 µg/mL in [13] (setting [15]). The IC50 at 24 h in [4] is 91.5 µM and 58.1 µg/mL; in data set [7], 84.8 µM and 53.8 µg/mL. Further, the IC50 at 48 h in [4] was 68.2 µM and 43.3 µg/mL; in [7] it was 59.5 µM and 37.8 µg/mL.
